Results taken from patent publication US8815875B2 (Merck Sharp & Dohme Corp., priority 2008, dated 2014).

Target: FABP4 (Homo sapiens, UniProt P15090)
Assay: TdF (Temperature Dependence Fluorescence) assay, thermal shift, FABP4
Assay type: binding
Summary of the method: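 Binding measured as ΔTm versus protein alone; binding constants derived by nonlinear fitting with ΔHL set to −7 kcal/mol and ΔCpL to zero.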

Chain of FABP4 (P15090 whole entry, species assumed): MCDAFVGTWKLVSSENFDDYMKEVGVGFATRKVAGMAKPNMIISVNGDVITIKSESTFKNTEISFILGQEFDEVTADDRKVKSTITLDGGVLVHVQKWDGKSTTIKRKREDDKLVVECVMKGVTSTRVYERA

Structure (SMILES)	FABP4 TdF Kd	Kd
O=C(NCC1(O)CCOCC1)C1(OCc2cc(=O)n3nc(-c4ccccc4)nc3[nH]2)CCCCC1 [48-61]	B (0.5 ≦ B < 0.001 μM)	–
O=C(NCC1CCC1)c1ccccc1OCc1cc(=O)n2nc(-c3ccccc3)nc2[nH]1 [47-56]	B (0.5 ≦ B < 0.001 μM)	–
O=C(NCCO)C1(OCc2cc(=O)n3nc(-c4ccccc4)nc3[nH]2)CCCCC1 [48-17]	B (0.5 ≦ B < 0.001 μM)	–
CN(Cc1cccc(Cl)c1)C(=O)C1(OCc2cc(=O)n3nc(-c4ccccc4)nc3[nH]2)CCCCC1 [48-31]	B (0.5 ≦ B < 0.001 μM)	–
CN(C(=O)C1(OCc2[nH]c3nc(-c4ccccc4)nn3c(=O)c2Cl)CCCCC1)C1CCCCC1 [50-4]	B (0.5 ≦ B < 0.001 μM)	–
O=C(NCC1(CO)CCCC1)c1c(Cl)cccc1OCc1cc(=O)n2nc(-c3ccccc3)nc2[nH]1 [47-20, 2-chloro-N-((1-(hydroxymethyl)cyclopentyl)methyl)-6-((7-oxo-2-phenyl-4,7-dihydro-[1,2,4]triazolo[1,5-a]pyrimidin-5-yl)methoxy)benzamide]	B (0.5 ≦ B < 0.001 μM)	–
COc1cc2c(cc1OC)CN(Cc1cc(=O)n3nc(-c4ccccc4)nc3[nH]1)C2 [6-5]	–	> 500 nM
CCc1ccc(OCc2[nH]c3ncnn3c(=O)c2F)cc1 [7-2]	–	> 500 nM
O=C(NC1CCCCC1)C1(OCc2cc(=O)n3nc(-c4ccccc4)nc3[nH]2)CCCCC1 [48-40]	B (0.5 ≦ B < 0.001 μM)	–
Cn1nc(C(F)(F)F)cc1OCc1cc(=O)n2nc(-c3ccccc3)nc2[nH]1 [1-22]	–	> 500 nM
CCc1ccc(OCc2cc(=O)n3nc(C(F)(F)F)nc3[nH]2)cc1 [8-2]	–	> 500 nM
O=c1cc(COc2cccc(Cl)c2CC2CC2)[nH]c2nc(-c3ccccc3)nn12 [43-2]	B (0.5 ≦ B < 0.001 μM)	–
O=C(NCC1(O)CCCCC1)c1c(Cl)cccc1OCc1cc(=O)n2nc(-c3ccccc3)nc2[nH]1 [47-13, 2-chloro-N-((1-hydroxycyclohexyl)methyl)-6-((7-oxo-2-phenyl-4,7-dihydro-[1,2,4]triazolo[1,5-a]pyrimidin-5-yl)methoxy)benzamide]	B (0.5 ≦ B < 0.001 μM)	–
COc1c(Cl)cccc1OCc1cc(=O)n2nc(-c3ccccc3)nc2[nH]1 [1-55]	B (0.5 ≦ B < 0.001 μM)	–
NC1(COC(=O)C2(OCc3cc(=O)n4nc(-c5ccccc5)nc4[nH]3)CCCCC2)CCOCC1 [48-68]	–	> 500 nM
O=C(NCCC1CC1)c1ccccc1OCc1cc(=O)n2nc(-c3ccccc3)nc2[nH]1 [47-61]	B (0.5 ≦ B < 0.001 μM)	–
O=C(NCC1(CO)CCCC1)c1ccccc1OCc1[nH]c2nc(-c3ccccc3)nn2c(=O)c1Cl [24-9]	B (0.5 ≦ B < 0.001 μM)	–
O=c1cc(CN2CCOc3c(Br)cccc32)[nH]c2nc(-c3ccccc3)nn12 [1-81]	B (0.5 ≦ B < 0.001 μM)	–
CN(Cc1cc(=O)n2nc(-c3ccccc3)nc2[nH]1)c1cccnc1Br [1-51]	–	> 500 nM
O=C(NCCC1CC1)C1(OCc2cc(=O)n3nc(-c4ccccc4)nc3[nH]2)CCCCC1 [48-26]	B (0.5 ≦ B < 0.001 μM)	–
Nc1cc(C2CC2)n(C(=O)c2c(Cl)cccc2OCc2cc(=O)n3nc(-c4ccccc4)nc3[nH]2)n1 [47-49]	B (0.5 ≦ B < 0.001 μM)	–
O=C(Nc1c(Cl)cccc1OCc1cc(=O)n2nc(-c3ccccc3)nc2[nH]1)C1CCC1 [49-2]	B (0.5 ≦ B < 0.001 μM)	–
Cc1ccc(C(C)C)cc1N(C)Cc1cc(=O)n2nc(-c3ccccc3)nc2[nH]1 [1-35]	B (0.5 ≦ B < 0.001 μM)	–
Cc1c(Cl)cccc1OCc1cc(=O)n2nc(-c3ccsc3)nc2[nH]1 [25-4]	B (0.5 ≦ B < 0.001 μM)	–
O=C(NCC1(CO)CCC1)c1ccccc1OCc1cc(=O)n2nc(-c3ccccc3)nc2[nH]1 [47-58]	B (0.5 ≦ B < 0.001 μM)	–
